Assay results from US9783505B2, “Substituted diaminopyrimidyl compounds, compositions thereof, and methods of treatment therewith” (Signal Pharmaceuticals, LLC, priority 2013, dated 2017).

Biological target: T1, His-PKC-theta (Homo sapiens, UniProt Q04759)
T1 construct: His; purchased Invitrogen
Assay: PKC-theta Assay (384-well time resolved fluorescence, IMAP TR-FRET)
Assay type: biochemical
Details: Table 2; read-out: Act. Level (IC50 in the PKC-theta Assay)
Method: PKC-theta Assay. A 384-well time resolved fluorescence assay was used to monitor PKC-theta activity. The PKC-theta assay was run in the following assay buffer: 50 mM HEPES pH 7.6, 10 mM MgCl2, 1 mM DTT, 0.01% Triton X-100, 0.01% BSA and 0.1 mM EDTA. To initiate the reaction, 200 nM of Fam-labeled S6-derived peptide (Molecular Devices) and 10 μM of ATP were mixed with 142 pM of His-PKC-theta (Invitrogen) for a total assay volume of 25 μL in each well. The assay was incubated at room temperature for 2 hours and terminated using a 60 μL/well mixture of Detection Binding Solution: 70% IMAP Progressive Binding Buffer A, 30% IMAP Progressive Binding Buffer B, 1:600 Progressive Binding Reagent, and 1:400 TR-FRET Tb Donor (Molecular Devices). The assay plates were then incubated overnight at room temperature and read on a Perkin-Elmer Envision Reader.

T1 sequence (Q04759 whole entry): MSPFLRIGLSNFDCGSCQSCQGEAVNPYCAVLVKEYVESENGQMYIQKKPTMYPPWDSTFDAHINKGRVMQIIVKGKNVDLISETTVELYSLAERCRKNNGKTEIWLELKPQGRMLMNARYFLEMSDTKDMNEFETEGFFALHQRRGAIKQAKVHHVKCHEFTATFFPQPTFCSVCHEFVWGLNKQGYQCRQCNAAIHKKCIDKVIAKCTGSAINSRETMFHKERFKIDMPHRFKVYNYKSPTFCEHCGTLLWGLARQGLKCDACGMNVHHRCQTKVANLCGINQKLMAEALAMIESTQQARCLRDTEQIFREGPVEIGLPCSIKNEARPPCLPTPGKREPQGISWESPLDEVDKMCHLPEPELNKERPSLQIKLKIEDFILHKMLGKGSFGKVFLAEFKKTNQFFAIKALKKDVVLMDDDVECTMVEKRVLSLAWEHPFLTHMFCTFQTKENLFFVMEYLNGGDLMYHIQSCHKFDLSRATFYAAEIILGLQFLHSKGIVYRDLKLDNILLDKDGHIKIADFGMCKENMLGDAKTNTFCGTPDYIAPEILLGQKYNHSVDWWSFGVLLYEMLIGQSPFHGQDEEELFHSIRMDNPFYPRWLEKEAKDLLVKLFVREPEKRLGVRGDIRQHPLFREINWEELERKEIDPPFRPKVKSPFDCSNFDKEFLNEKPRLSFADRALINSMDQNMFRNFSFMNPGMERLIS

| IC50 [nM] | SMILES |
| --- | --- |
| < 100 | Cc1ccc(CCNc2ncc(C#N)c(N[C@@H]3CC[C@H](O)C(C)(C)C3)n2)cc1C [Cmpd 35] |
| 100 to 800 | COc1ccc(CCNc2ncc(C#N)c(N[C@@H]3CC[C@H](O)C(C)(C)C3)n2)cc1 [Cmpd 94] |
| 100 to 800 | CC1(C)C[C@H](Nc2nc(NCCc3ccc(C#N)c(F)c3)ncc2C#N)CC[C@@H]1O [Cmpd 148] |
| 100 to 800 | CC1(C)C[C@H](Nc2nc(NCCc3ccccc3OC(F)(F)F)ncc2C#N)CC[C@@H]1O [Cmpd 55] |
| < 100 | CC1(C)C[C@H](Nc2nc(NCCc3ccc(OCCF)cc3)ncc2C#N)CC[C@@H]1O [Cmpd 171] |
| 100 to 800 | CC1(C)C[C@H](Nc2nc(NCCc3cc(Cl)ccc3S(N)(=O)=O)ncc2C#N)CC[C@@H]1O [Cmpd 193] |
| 100 to 800 | CC1(C)C[C@H](Nc2nc(NCCc3ccc(F)cc3F)ncc2C#N)CC[C@@H]1O [Cmpd 197] |
| 100 to 800 | COc1ccccc1CCNc1ncc(C#N)c(N[C@@H]2CC[C@H](O)C(C)(C)C2)n1 [Cmpd 30] |
| 100 to 800 | CC1(C)C[C@H](Nc2nc(NCCc3ccc(Cl)cc3Cl)ncc2C#N)CC[C@@H]1O [Cmpd 100] |
| < 100 | CC1(C)C[C@H](Nc2nc(NCCc3cccc(Cl)c3F)ncc2C#N)CC[C@@H]1O [Cmpd 87] |
| 100 to 800 | CC1(C)C[C@H](Nc2nc(NCCc3ccc(OC(F)(F)F)cc3)ncc2C#N)CC[C@@H]1O [Cmpd 53] |
| < 100 | CC1(C)C[C@H](Nc2nc(NCCc3ccc(O)cc3)ncc2C#N)CC[C@@H]1O [Cmpd 29] |
| 100 to 800 | CC1(C)C[C@H](Nc2nc(NCC(=O)c3ccc(Cl)cc3)ncc2C#N)CC[C@@H]1O [Cmpd 81] |
| 800 to 2000 | CC1(C)C[C@H](Nc2nc(NCCc3ccc(C(=O)O)cc3)ncc2C#N)CC[C@@H]1O [Cmpd 153] |
| 100 to 800 | CC1(C)C[C@H](Nc2nc(NCCc3ccc(C#N)cc3)ncc2C#N)CC[C@@H]1O [Cmpd 37] |
| 100 to 800 | CC1(C)C[C@H](Nc2nc(NCCc3ccc(CO)cc3)ncc2C#N)CC[C@@H]1O [Cmpd 57] |
| 100 to 800 | CC1(C)C[C@H](Nc2nc(NCCc3ccccc3OC(F)F)ncc2C#N)CC[C@@H]1O [Cmpd 132] |

The remaining lines, values behind:

| SMILES | IC50 [nM] |
| --- | --- |
| CC(C)(O)CNc1nc(NCc2cnccc2C(F)(F)F)ncc1C#N [Cmpd 6] | 100 to 800 |
| CC1(C)C[C@H](Nc2nc(NCCc3cc(C(F)(F)F)cc(C(F)(F)F)c3)ncc2C#N)CC[C@@H]1O [Cmpd 54] | 800 to 2000 |
| COc1ccc(CCNc2ncc(C#N)c(N[C@@H]3C[C@H](O)C3(C)C)n2)cc1 [Cmpd 103] | 100 to 800 |
| Cc1nnnn1-c1ccc(CCNc2ncc(C#N)c(N[C@@H]3CCC[C@@](C)(O)C3)n2)cc1 [Cmpd 191] | 2000 to 10000 |
| CC1(C)[C@@H](N)C[C@H]1Nc1nc(NCCc2cccc(Cl)c2)ncc1C#N [Cmpd 160] | 800 to 2000 |
| CC1(C)[C@@H](CO)C[C@@H]1Nc1nc(NCCc2cccc(Cl)c2)ncc1C#N [Cmpd 77] | 2000 to 10000 |
| CC1(C)[C@@H](O)C[C@H]1Nc1nc(NCCc2ccccc2O)ncc1C#N [Cmpd 108] | 800 to 2000 |
| N#Cc1cnc(NCc2ccccc2)nc1N[C@H]1CC[C@@H](O)CC1 [Cmpd 28] | 2000 to 10000 |
| CC1(C)[C@@H](O)C[C@H]1Nc1nc(NCCc2ccc(CN3CCCC3=O)cc2)ncc1C#N [Cmpd 123] | 800 to 2000 |
| CC1(C)[C@H](N)C[C@@H]1Nc1nc(NCCc2cccc(Cl)c2)ncc1C#N [Cmpd 159] | < 100 |
| CC1(C)C[C@H](Nc2nc(NCCc3ccc(S(=O)(=O)N4CCCC4)cc3)ncc2C#N)CC[C@@H]1O [Cmpd 174] | 100 to 800 |
| N#Cc1cnc(NCCc2cccc(Cl)c2)nc1N[C@H]1C[C@@H](O)C1 [Cmpd 70] | 800 to 2000 |
| CC1(C)[C@@H](Nc2nc(NCCc3cccc(Cl)c3)ncc2C#N)C[C@@H]1C(N)=O [Cmpd 162] | 100 to 800 |
| CNC(=O)c1cccc(CCNc2ncc(C#N)c(N[C@@H]3C[C@H](O)C3(C)C)n2)c1 [Cmpd 135] | 800 to 2000 |
| CCOc1cccc(F)c1CNc1ncc(C#N)c(N[C@H]2CC[C@@H](O)CC2)n1 [Cmpd 23] | 2000 to 10000 |
| CC1(C)C[C@H](Nc2nc(NCCc3ccc(Oc4ccccc4)cc3)ncc2C#N)CC[C@@H]1O [Cmpd 79] | 100 to 800 |
| N#Cc1cnc(NCCc2cccc(Cl)c2)nc1N[C@H]1C[C@H](O)C1 [Cmpd 71] | 2000 to 10000 |

Same assay, conditions: read-out: Act. Level (IC50 in the PKC-theta Assay)

| IC50 [nM] | SMILES |
| --- | --- |
| < 100 | CC(F)(F)COc1ncncc1CNc1ncc(C#N)c(N[C@H]2CC[C@@H](O)CC2)n1 [Cmpd 153] |
| 800 to 2000 | CC1(C)C[C@H](Nc2nc(NCCc3n[nH]c4ccccc34)ncc2C#N)CC[C@@H]1O [Cmpd 176] |
| 100 to 800 | CC1(C)C[C@H](Nc2nc(NCCc3ccco3)ncc2C#N)CC[C@@H]1O [Cmpd 196] |
| 100 to 800 | CC1(C)[C@H](O)C[C@H]1Nc1nc(NCc2cncnc2-c2ccc(F)cc2)ncc1C#N [Cmpd 93] |
| < 100 | CC(C)(F)c1ncncc1CNc1ncc(C#N)c(N[C@@H]2C[C@H](CO)C2(C)C)n1 [Cmpd 15] |
| 2000 to 10000 | Cc1ccnn1CCNc1ncc(C#N)c(N[C@@H]2CC[C@H](O)C(C)(C)C2)n1 [Cmpd 193] |
| 100 to 800 | Cc1[nH]c2ccccc2c1CCNc1ncc(C#N)c(N[C@@H]2CC[C@H](O)C(C)(C)C2)n1 [Cmpd 168] |
| 100 to 800 | C[C@@H]1CC[C@@H](Nc2nc(NCc3cncnc3OCC(C)(F)F)ncc2C#N)C[C@H]1O [Cmpd 157] |
| < 100 | CC1(C)C[C@H](Nc2nc(NCc3cncnc3OCCC(F)(F)F)ncc2C#N)CC[C@@H]1O [Cmpd 6] |
| < 100 | CC1(C)C[C@H](Nc2nc(NCc3cncnc3C(F)(F)F)ncc2C#N)CC[C@@H]1O [Cmpd 43] |
| 2000 to 10000 | Cc1cc(C)n(CCNc2ncc(C#N)c(N[C@@H]3CC[C@H](O)C(C)(C)C3)n2)n1 [Cmpd 198] |
| < 100 | CC(F)(F)c1ncncc1CNc1ncc(C#N)c(N[C@@H]2CC[C@H](O)C(C)(C)C2)n1 [Cmpd 36] |
| 100 to 800 | CC(F)(F)COc1ncncc1CNc1ncc(C#N)c(N[C@H]2C[C@@H](O)C2(C)C)n1 [Cmpd 99] |
| < 100 | CC1(C)C[C@H](Nc2nc(NCCc3c[nH]c4c(F)cccc34)ncc2C#N)CC[C@@H]1O [Cmpd 182] |
| 100 to 800 | COc1cccc2c(CCNc3ncc(C#N)c(N[C@@H]4CC[C@H](O)C(C)(C)C4)n3)c[nH]c12 [Cmpd 177] |
| < 100 | CC(C)(F)c1ncncc1CNc1ncc(C#N)c(N[C@@H]2CC[C@H](O)C(C)(C)C2)n1 [Cmpd 10] |
| 100 to 800 | CC(C)c1ncncc1CNc1ncc(C#N)c(N[C@H]2C[C@@H](CO)C2(C)C)n1 [Cmpd 140] |
| 100 to 800 | CC1(C)C[C@H](Nc2nc(NCCc3c[nH]c4ccc(Cl)cc34)ncc2C#N)CC[C@@H]1O [Cmpd 169] |
| 100 to 800 | Cc1[nH]c2c(F)cc(F)cc2c1CCNc1ncc(C#N)c(N[C@@H]2CC[C@H](O)C(C)(C)C2)n1 [Cmpd 167] |

The next lines start with the compound.

| SMILES | IC50 [nM] |
| --- | --- |
| CNC(=O)[C@H]1CC[C@@H](Nc2nc(NCc3cnccc3C(F)(F)F)ncc2C(F)(F)F)CC1 [Cmpd 17] | < 100 |
| CC1(C)[C@@H](Nc2nc(NCc3cnccc3C(F)(F)F)ncc2C(F)(F)F)C[C@@H]1O [Cmpd 143] | 800 to 2000 |
| CC1(C)[C@@H](O)C[C@H]1Nc1nc(NCCCn2ccnc2)ncc1C#N [Cmpd 188] | 2000 to 10000 |
| N#Cc1cnc(NCCc2c[nH]c3cc(F)ccc23)nc1N[C@H]1CC[C@@H](O)CC1 [Cmpd 165] | 800 to 2000 |
| CC1(C)[C@H](O)C[C@H]1Nc1nc(NCc2cncnc2OCCC(F)(F)F)ncc1C(F)(F)F [Cmpd 125] | < 100 |
| CC1(C)[C@@H](Nc2nc(NCc3c[n+]([O-])ccc3C(F)(F)F)ncc2C(F)(F)F)C[C@@H]1O [Cmpd 139] | 100 to 800 |
| CC1(C)C(O)C[C@@H]1Nc1nc(NCc2cncnc2OCCC(F)(F)F)ncc1C(F)(F)F (stereo partly drawn) [Cmpd 85] | < 100 |
| COC1CC(Nc2nc(NCc3cnccc3C(F)(F)F)ncc2C(F)(F)F)C1(C)C (stereo not drawn) [Cmpd 103] | 100 to 800 |
| CC1(C)[C@@H](CO)C[C@H]1Nc1nc(NCc2cnccc2C(F)(F)F)ncc1C#N [Cmpd 64] | < 100 |
| CC(F)(F)COc1ncncc1CNc1ncc(C(F)(F)F)c(N[C@@H]2C[C@H](O)C2(C)C)n1 [Cmpd 13] | < 100 |
| C[C@]1(O)CC[C@@H](Nc2nc(NCc3cncnc3-c3ccccc3)ncc2C#N)CC1 [Cmpd 84] | < 100 |
| N#Cc1cnc(NCc2cnccc2C(F)(F)F)nc1N[C@H]1C[C@H](O)C1 [Cmpd 108] | 100 to 800 |
| Cc1cnccc1CCNc1ncc(C#N)c(N[C@H]2CC[C@@H](O)CC2)n1 [Cmpd 152] | 2000 to 10000 |
| N#Cc1cnc(NCCC2(O)C(=O)Nc3ccccc32)nc1N[C@H]1CC[C@@H](O)CC1 (stereo partly drawn) [Cmpd 162] | 2000 to 10000 |
| O[C@H]1C[C@@H](Nc2nc(NCc3cnccc3C(F)(F)F)ncc2C(F)(F)F)C1 [Cmpd 95] | 100 to 800 |
| CC1(C)[C@@H](CO)C[C@H]1Nc1nc(NCc2c[n+]([O-])ccc2C(F)(F)F)ncc1C(F)(F)F [Cmpd 48] | < 100 |
| CNC(=O)[C@H]1CC[C@@H](Nc2nc(NCc3cncnc3Oc3cccc(C)c3)ncc2C#N)CC1 [Cmpd 22] | < 100 |
| Cc1ccc(Oc2ncncc2CNc2ncc(C#N)c(N[C@H]3CC[C@@H](O)CC3)n2)cc1 [Cmpd 26] | < 100 |
| Cc1cccc(Oc2ncncc2CNc2ncc(C#N)c(N[C@H]3CC[C@@H](O)CC3)n2)c1 [Cmpd 45] | < 100 |
| Cc1[nH]c2ccc(C#N)cc2c1CCNc1ncc(C#N)c(N[C@H]2CC[C@@H](O)CC2)n1 [Cmpd 148] | 2000 to 10000 |
| CCOc1ncncc1CNc1ncc(C(F)(F)F)c(N[C@@H]2C[C@H](O)C2(C)C)n1 [Cmpd 57] | < 100 |
| CC1(C)C[C@H](Nc2nc(NCCc3c[nH]c4cc(OC(F)(F)F)ccc34)ncc2C#N)CC[C@@H]1O [Cmpd 170] | 100 to 800 |
